From PubChem BioAssay AID1996
Values after ≈ are worked out from the molar mass of the structure shown.

Conditions: buffer; pH 7.4; 200.0 µM
For Cc1ccc(NC(=O)C2COc3ccccc3O2)c(C)c1 (stereo not drawn), the solubility kinetic was 33 µg/mL (≈ 116 µM).
In the case of O=C(NCC(=O)N1CCOCC1)c1ccc(Cl)cc1, the solubility kinetic is reported as greater than 42.4 µg/mL.
For OC1/C(=C/c2ccc(C(F)(F)F)cc2)N2CCC1CC2 (stereo not drawn), the solubility kinetic was 41.5 µg/mL (≈ 146 µM).
Compound O=C(Nc1ccc(F)cc1)c1cc(-c2ccccc2)no1 has a solubility kinetic of less than 0.3 µg/mL.
For O=C(CCNC(=O)c1ccco1)Nc1ccc(Cl)cc1F, the solubility kinetic was greater than 46.6 µg/mL.
Work on CN(c1ccccc1)S(=O)(=O)c1ccc(C(=O)NCc2ccccc2F)cc1 yielded a solubility kinetic of 10.4 µg/mL (≈ 26.1 µM).
In the case of O=C(NC1CCCc2ccccc21)c1ccc(F)cc1F (stereo not drawn), the solubility kinetic is reported as 10.9 µg/mL (≈ 37.9 µM).
For O=c1cnnc(Nc2ccccc2)[nH]1, the solubility kinetic was greater than 28.2 µg/mL.
In the case of O=CC1=C(N2CCOCC2)/C(=C\c2ccccc2)CC1, the solubility kinetic is reported as 32.2 µg/mL (≈ 120 µM).
Nc1nccnc1C(=O)OCC(=O)c1ccc[nH]1 gave a solubility kinetic greater than 36.9 µg/mL.
In the case of CN(Cc1ccccc1)C(=O)COc1cc(Cl)ccc1Cl, the solubility kinetic is reported as 24.1 µg/mL (≈ 74.3 µM).
Work on Nc1nc(SCC(=O)N2CCOCC2)[nH]c(=O)c1-c1ccccc1 yielded a solubility kinetic greater than 52 µg/mL.
Compound Cc1onc(-c2ccccc2)c1C(=O)N1CCCC1 has a solubility kinetic greater than 38.4 µg/mL.
O=C(Cc1cccc(Cl)c1)Nc1ccc(Br)cc1 showed a solubility kinetic of 2.9 µg/mL (≈ 8.93 µM).
With Cc1ccnc(NC(=O)COC(=O)c2ccc(F)cc2F)n1 the solubility kinetic was greater than 46.1 µg/mL.
In the case of O=C(NCC1CC1)c1ccccc1Cl, the solubility kinetic is reported as greater than 31.5 µg/mL.
Compound COc1cccc(Nc2ncnc3sccc23)c1 has a solubility kinetic greater than 38.6 µg/mL.
Compound N#Cc1ccc(C(=O)Nc2cccc(S(=O)(=O)NC3=NCCC3)c2)cc1 has a solubility kinetic of 23.7 µg/mL (≈ 64.3 µM).
Cc1cccc(-c2nc(C#N)c(NCC3CCCO3)o2)c1 (stereo not drawn) gave a solubility kinetic of 2.3 µg/mL (≈ 8.12 µM).
Work on COc1ccc(OCC(O)CNC(=O)c2cccs2)cc1 (stereo not drawn) yielded a solubility kinetic of 36.9 µg/mL (≈ 120 µM).
For Cn1c(/C=C/c2ccccc2)nc2ccccc21, the solubility kinetic was 21.9 µg/mL (≈ 93.5 µM).
With O=C(CCl)N(C1CCCC1)C1CCS(=O)(=O)C1 (stereo not drawn) the solubility kinetic was greater than 42 µg/mL.
COC(=O)[C@H](Cc1ccccc1)NC(=O)NCc1ccccc1 gave a solubility kinetic of 45.4 µg/mL (≈ 145 µM).
With COc1ccc2c(CC(=O)Nc3ccc(N4CCOCC4)cc3)coc2c1 the solubility kinetic was 5.4 µg/mL (≈ 14.7 µM).
For O=C(CCn1ccnc1)Nc1cc(Cl)ccc1O, the solubility kinetic was greater than 39.9 µg/mL.
Work on Cc1ccc(C(=O)Nc2ccc3ccccc3n2)cc1 yielded a solubility kinetic of 2.3 µg/mL (≈ 8.77 µM).
O=C(c1cc2cc(F)ccc2[nH]1)N1CCc2ccccc2C1 gave a solubility kinetic of 0.9 µg/mL (≈ 3.06 µM).
COc1cc(-c2csc(NC3CCCCC3)n2)cc(OC)c1OC gave a solubility kinetic of 6.6 µg/mL (≈ 18.9 µM).
For CC(=O)Nc1cc[n+](CC(=O)c2cccc([N+](=O)[O-])c2)cc1.[Cl-], the solubility kinetic was 40.3 µg/mL.
Work on CCCCN(C)S(=O)(=O)c1cc2c3c(c1)CCC(=O)N3CCC2 yielded a solubility kinetic of 48.6 µg/mL (≈ 144 µM).
For CC1CN(C(C)C)C(C)CC1OC(=O)c1ccccc1 (stereo not drawn), the solubility kinetic was greater than 41.3 µg/mL.
COc1ccccc1C(=O)NCCC(=O)Nc1ccc(C)cn1 gave a solubility kinetic of 43.7 µg/mL (≈ 139 µM).
COCCCNC(=O)C(=O)NC1CCCCC1C (stereo not drawn) gave a solubility kinetic greater than 38.5 µg/mL.
In the case of COC(=O)CNC(=O)c1cccc(Cl)c1, the solubility kinetic is reported as greater than 34.1 µg/mL.
COc1ccccc1C(C)NC(=O)CCOc1cccc(C)c1 (stereo not drawn) showed a solubility kinetic of 2.4 µg/mL (≈ 7.66 µM).
In the case of COc1ccc(-c2csc3ncnc(Cl)c23)cc1, the solubility kinetic is reported as 0.6 µg/mL (≈ 2.17 µM).
Compound CN(C)S(=O)(=O)N1CCC(CO)(CCc2ccccc2)CC1 has a solubility kinetic greater than 49 µg/mL.
In the case of O=C1C(Cl)=C(N2CCCCCC2)C(=O)N1c1ccccc1Cl, the solubility kinetic is reported as 25.7 µg/mL (≈ 75.8 µM).
O=c1c2ccccc2nc2n1CCCN2 showed a solubility kinetic greater than 30.2 µg/mL.
With Cc1ccc(N=C2C(=O)Nc3ccc(C)c(Br)c32)cc1 the solubility kinetic was 32.6 µg/mL (≈ 99 µM).
In the case of COC(=O)c1ccc(NC(=S)NCCc2ccc(OC)cc2)cc1, the solubility kinetic is reported as 0.8 µg/mL (≈ 2.32 µM).
Work on CC(=O)c1cccc(NC(=S)NCc2ccco2)c1 yielded a solubility kinetic of 33.7 µg/mL (≈ 123 µM).
CC(C)C(=O)Nc1ccc(S(=O)(=O)Nc2ccccn2)cc1 showed a solubility kinetic greater than 47.9 µg/mL.
With Cc1c(C(=O)N2CCC2)oc2c(F)cccc12 the solubility kinetic was 30.3 µg/mL (≈ 130 µM).
COC(=O)c1cc(-c2ccc(OC)cc2)on1 showed a solubility kinetic of 9.7 µg/mL (≈ 41.6 µM).
For CN(CCc1ccccc1)Cc1nc(-c2cnccn2)no1, the solubility kinetic was 44 µg/mL (≈ 149 µM).
For NC(=O)Nc1ccccc1C(=O)Nc1ccc2ccccc2c1, the solubility kinetic was 19.6 µg/mL (≈ 64.2 µM).
For Cc1ccc(OCCNC(=O)c2ccccc2O)cc1, the solubility kinetic was 4.5 µg/mL (≈ 16.6 µM).
CC(=O)c1cccc(NC(=O)C2CC(=O)N(C3CCCC3)C2)c1 (stereo not drawn) gave a solubility kinetic greater than 47.2 µg/mL.
Work on CN(C(=O)COC(=O)c1ccc(Cl)c(S(=O)(=O)N2CCCCCC2)c1)C1CCS(=O)(=O)C1 (stereo not drawn) yielded a solubility kinetic greater than 76.1 µg/mL.
Compound CCOC(=O)N1CCC(NC(=O)CCc2ccccc2)CC1 has a solubility kinetic greater than 45.7 µg/mL.
For COCCNc1oc(Cc2cccc3ccccc23)nc1C#N, the solubility kinetic was 43.3 µg/mL (≈ 141 µM).
Work on O=C(O)CCC(=O)Nc1nc2nccc(-c3ccccc3)n2n1 yielded a solubility kinetic greater than 46.7 µg/mL.
With Cc1cc(C)c2nc(SCC(=O)Nc3cc(C)on3)c(C)cc2c1 the solubility kinetic was 0.3 µg/mL (≈ 0.879 µM).
Work on O=C(Cc1cccc2ccccc12)Nc1cc(Cl)ccc1C(=O)O yielded a solubility kinetic greater than 51 µg/mL.
In the case of COCc1cc(=O)[nH]c2cc(NC(=O)c3cccc(OC)c3)c(C)cc12, the solubility kinetic is reported as 1.1 µg/mL (≈ 3.12 µM).
In the case of O=C(c1ccsc1)N1CCCC(N2CCOCC2)C1 (stereo not drawn), the solubility kinetic is reported as greater than 42.1 µg/mL.
For CCCN1C(=O)/C(=C2/C=Cc3ccccc3N2CC)SC1=S, the solubility kinetic was less than 0.4 µg/mL.
In the case of CC(C)CCN1C(=O)C2(OCCCO2)c2cc(Cl)ccc21, the solubility kinetic is reported as 3 µg/mL (≈ 9.68 µM).
Compound CCOC(=O)C1CCN(c2nc(C)cc(C)c2C#N)CC1 has a solubility kinetic of 36.9 µg/mL (≈ 128 µM).
Compound Cc1cccc(CC(=O)c2c[nH]c3ccccc23)c1 has a solubility kinetic of 0.9 µg/mL (≈ 3.61 µM).
C=CCNC(=O)c1cnc(-c2ccccc2)nc1-c1ccccc1 showed a solubility kinetic of 0.7 µg/mL (≈ 2.22 µM).
CNC(=O)Cn1c(C)cc(=O)c2cccc(OC)c21 showed a solubility kinetic greater than 39 µg/mL.
In the case of COc1ccc2c(ccn2S(=O)(=O)c2ccccc2)c1, the solubility kinetic is reported as 1.6 µg/mL (≈ 5.57 µM).
COC(=O)/C=C1\SC(=NC(=O)c2ccc(-c3ccccc3)cc2)NC1=O gave a solubility kinetic of 2.6 µg/mL (≈ 7.1 µM).
CCCCCN1CC(O)=C(c2nc3ccccc3[nH]2)C1=N showed a solubility kinetic of 1.1 µg/mL (≈ 3.87 µM).
CC1CCCC(NC(=O)CSc2ncnc3ccccc23)C1C (stereo not drawn) showed a solubility kinetic of 24.1 µg/mL (≈ 73.1 µM).
COc1ccc(CC(=O)Nc2ccccc2N2CCCC2)cc1 showed a solubility kinetic of 41.6 µg/mL (≈ 134 µM).
For CCCNC(=O)c1ccccc1NC(=O)C1=CSCCO1, the solubility kinetic was greater than 46 µg/mL.
O=[N+]([O-])c1ccc(OCCCOc2cccc3cccnc23)cc1 showed a solubility kinetic of 0.6 µg/mL (≈ 1.85 µM).
In the case of Cc1ccc(CSc2nsc(C)c2C#N)cc1, the solubility kinetic is reported as 3.3 µg/mL (≈ 12.7 µM).
Compound COc1ccccc1CCNS(=O)(=O)c1cn(C)c(=O)n(C)c1=O has a solubility kinetic greater than 53 µg/mL.
In the case of COC(=O)c1ccccc1NC(=O)c1cc[n+]([O-])cc1, the solubility kinetic is reported as 36.2 µg/mL (≈ 133 µM).
O=P(C(Cl)Cl)(N1CCOCC1)N1CCOCC1 showed a solubility kinetic greater than 45.5 µg/mL.
O=C(NNC(=O)c1ccccn1)c1ccc(OC(F)F)cc1 gave a solubility kinetic greater than 46.1 µg/mL.
Work on O=C(NC1CCCCCC1)C(=S)N1CCOCC1 yielded a solubility kinetic of 23.1 µg/mL (≈ 85.4 µM).
With COc1ccccc1C(=O)Nc1onc(C)c1C#N the solubility kinetic was greater than 38.6 µg/mL.
Work on COc1ccc2oc(C(=O)OCC(=O)Nc3ccc(C(=O)N(C)C)cc3)c(C)c2c1 yielded a solubility kinetic of 58.7 µg/mL (≈ 143 µM).
For Cn1c(=O)oc2cc(S(=O)(=O)N3CCc4ccccc43)ccc21, the solubility kinetic was 0.5 µg/mL (≈ 1.51 µM).
With O=c1[nH]c(O)c(C=Nc2ccc(Cl)c(C(F)(F)F)c2)c(=O)[nH]1 the solubility kinetic was 1.7 µg/mL (≈ 5.1 µM).
Work on CCN(CC)S(=O)(=O)c1ccc(=O)[nH]c1 yielded a solubility kinetic greater than 34.5 µg/mL.
In the case of COc1ccc(/C(N)=N/OC(=O)C2CCCCC2)cc1, the solubility kinetic is reported as 20.6 µg/mL (≈ 74.5 µM).
Work on O=C1OCC2=C1C(c1ccccc1)CC(=O)N2c1cccc(F)c1 (stereo not drawn) yielded a solubility kinetic of 44.3 µg/mL (≈ 137 µM).
Fc1ccc(CO/N=C2\CCCc3nonc32)cc1 gave a solubility kinetic of 3 µg/mL (≈ 11.5 µM).
Compound Cc1cccc(NC(=O)c2ccc(Cl)nc2)n1 has a solubility kinetic greater than 37.2 µg/mL.
Work on O=C(COc1ccc(C(=O)c2ccc(F)cc2)cc1)Nc1cccc(S(=O)(=O)N2CCOCC2)c1 yielded a solubility kinetic of 4.2 µg/mL (≈ 8.42 µM).
In the case of Cc1[nH]c2ccccc2c1C(=O)C(=O)N(C)C1CCCCC1, the solubility kinetic is reported as greater than 44.8 µg/mL.
In the case of NC(=S)Cc1ccc(Cl)cc1Cl, the solubility kinetic is reported as 30.9 µg/mL (≈ 140 µM).
